Test results taken from ChEMBL document CHEMBL5241109, “Roles and drug development of METTL3 (methyltransferase-like 3) in anti-tumor therapy” (Eur J Med Chem, 2022).

Columns and labels:
[1] = Apparent permeability across apical to basolateral side in human Caco-2 cells; type: ADME, cell-based
[2] = Apparent permeability across basolateral to apical side in human Caco-2 cells; type: ADME, cell-based
[3] = Efflux ratio of apparent permeability across basolateral to apical side over apical to basolateral side in human Caco-2 cells; type: ADME, cell-based
[4] = target: T1, N6-adenosine-methyltransferase catalytic subunit (Homo sapiens, UniProt Q86U44); test: Inhibition of METTL3 (unknown origin)
[5] = target: T1, N6-adenosine-methyltransferase catalytic subunit; test: Inhibition of METTL3 (unknown origin) assessed as remaining activity at 500 uM relative to control

T1 sequence (Q86U44 whole entry): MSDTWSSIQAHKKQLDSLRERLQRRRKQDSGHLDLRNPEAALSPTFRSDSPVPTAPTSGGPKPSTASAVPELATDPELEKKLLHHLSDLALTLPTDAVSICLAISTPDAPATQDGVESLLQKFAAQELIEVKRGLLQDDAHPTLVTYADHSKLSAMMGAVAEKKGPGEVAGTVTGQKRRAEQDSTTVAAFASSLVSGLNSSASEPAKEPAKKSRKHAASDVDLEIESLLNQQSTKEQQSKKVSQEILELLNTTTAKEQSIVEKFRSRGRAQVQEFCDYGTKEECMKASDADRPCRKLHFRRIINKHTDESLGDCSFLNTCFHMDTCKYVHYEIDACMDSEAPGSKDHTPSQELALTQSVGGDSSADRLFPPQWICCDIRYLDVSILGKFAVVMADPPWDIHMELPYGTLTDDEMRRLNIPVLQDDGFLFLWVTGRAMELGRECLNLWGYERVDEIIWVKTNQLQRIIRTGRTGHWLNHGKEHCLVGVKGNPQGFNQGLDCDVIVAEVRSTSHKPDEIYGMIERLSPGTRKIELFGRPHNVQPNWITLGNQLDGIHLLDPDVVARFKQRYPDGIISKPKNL

IC50 [4]	Activity [5]	Structure (SMILES)	further results
		COCCc1ccc(OCC(O)CNC(C)C)cc1 (configuration not stated) [METOPROLOL]	Papp A→B [1]: 31.4 ×10⁻⁶ cm/s; Papp B→A [2]: 33.3 ×10⁻⁶ cm/s; efflux ratio [3]: 1.1
495 µM		Nc1ncnc2c1ncn2[C@@H]1O[C@H](CO)[C@@H](O)[C@H]1O [ADENOSINE]	
> 250 µM	107%	Nc1ncnc2c1ncn2C[C@H]1OC[C@@H](N)[C@H](O)[C@@H]1O	
		CC[C@H]1OC(=O)[C@H](C)[C@@H](O[C@H]2C[C@@](C)(OC)[C@@H](O)[C@H](C)O2)[C@H](C)[C@@H](O[C@@H]2O[C@H](C)C[C@H](N(C)C)[C@H]2O)[C@](C)(O)C[C@@H](C)C(=O)[C@H](C)[C@@H](O)[C@]1(C)O [ERYTHROMYCIN]	Papp [1]: 0.2 10^-6 cm/s; Papp [2]: 17.5 10^-6 cm/s; Ratio [3]: 62.9
> 250 µM		Nc1ncnc2c1ncn2[C@@H]1O[C@H](C(=O)NCC2CCNCC2)[C@@H](O)[C@H]1O	
98 µM	20%	CNC1CCC(O)(Cn2cnc3c(N)ncnc32)C(O)C1 (configuration not stated)	
65 µM	18%	CN1CCC(NC(=O)[C@H]2O[C@@H](n3cnc4c(N)ncnc43)[C@H](O)[C@@H]2O)CC1	
8.7 µM		Nc1ncnc2c1ncn2[C@@H]1O[C@H](C(=O)NCCCCN2CCCC2)[C@@H](O)[C@H]1O	
332 µM	38%	Nc1ncnc2c1ncn2[C@@H]1O[C@H](C(=O)NCCCNC(=O)c2ccccn2)[C@@H](O)[C@H]1O	
